In US10925858B2, “S-nitrosoglutathione (GSNO) and GSNO reductase inhibitors for use in therapy” (MUSC FOUNDATION FOR RESEARCH DEVELOPMENT, priority 2017, dated 2021):

Tests used:
[1] = tested on: hBMVECs; experiment: Assay for F-actin stress fiber development in thrombin treated hBMVECs; assay type: cell-based, human; details: thrombin 0.1 unit/ml 30 min; GSNO 100 μM or SIN-1 100 μM pretreated 2 hr
Description: Cell culture: Primary human brain microvascular endothelial cells (hBMVECs) were purchased from Angio-Proteomie (Cat #: cAP-0002, Atlanta, Ga.). The cells were cultured in cell culture flasks or plates precoated with Quick Coating Solution (Angio-Proteomie; Cat #: cAP-01) and maintained in Endothelial Growth Medium (Angio-Proteomie; Cat #: cAP-02) at 37° C. under 5% CO2/95% air. When the cells were almost confluent, the medium was replaced with endothelial basal medium (Angio-Proteomie; Cat #: cAP-03) containing 0.5% fetal bovine serum (FBS; Life Technologies, Grand Island, N.Y.) about 8-12 hours before the experiment. No institutional approval was required for this study. The study was not pre-registered.
Assay for F-actin stress fiber development and endothelial cell contraction: hBMVECs were cultured on fibronectin-coated chamber slides (BD Bioscience). Following drug treatments, the cells were fixed with 4% (wt/vol) paraformaldehyde, permeabilized by the addition of 0.25% Triton X-100, and blocked by 2% bovine serum albumin (BSA) in phosphate buffered saline (PBS). […] The density of fluorescence was analyzed by ImageJ (NIH, Bethesda, Md.).

[2] = tested on: cell adhesion molecules (ICAM-1 and VCAM-1); experiment: Real-time PCR, mRNA expression of cell adhesion molecules in diabetic mice; assay type: in vivo; details: cortex and hippocampus, GSNO supplemented diabetic animals
Description: Male laca mice weighing between 28-32 g were procured from the Central Animal House, Panjab University, Chandigarh. The animals were acclimatized and were fed with standard pellet diet and water ad libitum. The experimental protocols were approved by the Institutional Ethics Committee and were conducted according to Indian National Science Academy (INSA) guidelines for the use and care of experimental animals. […] Animals were assessed weekly for development of diabetic encephalopathy in terms of memory deficits. […]
PCR Total RNA was extracted from microvessels obtained from brain tissue using TriReagent®. […] The concentration of RNA obtained was determined by 260/280 nm ratio using a Nanodrop™ Spectrophotometer (Nanodrop™ 1000, Thermo Scientific®, Waltham, USA). The integrity and overall quality of RNA was evaluated using agarose gel electrophoresis. […] The data obtained was analyzed by the LightCycler 480 Software, Version 1.5. […] Glyceraldehyde-3-phosphate dehydrogenase was used as the reference gene and the relative gene expression was determined using delta-delta Ct method as described by Pfaffl et al., (2002).

Question: `N[C@@H](CCC(=O)N[C@@H](CSN=O)C(=O)NCC(=O)O)C(=O)O` [GSNO, S-nitrosoglutathione] was tested. Which “thrombin-induced development of F-actin stress fiber formation” value [1] did it give?
Answer: inhibited

Question: And the “mRNA expression of ICAM-1” value [2]?
Answer: comparable to control levels
